Data as given in US8940798B2, “Compounds useful for treating and/or preventing disease-associated bone loss” (Centre National de al Recherche Scientifique (CNRS), priority 2011, dated 2015).

Legend:
Dock5-DHR2 = target: T1, Dock5-DHR2 (Mus musculus, UniProt B2RY04); assay: Active (GTP-bound) Rac1 pull-down in 293T cells expressing GFP-fused Dock5-DHR2; type: cell-based; details: HEK293T cells, treated for 1 hour, 1% DMSO, western blot
T1 construct: Dock5 DHR2 domain (aminoacids E1119 to L1667) was cloned into pEGFP (Clontech) or myc tagged in pRs426Met (21); expressed in transfected cells; host or cells: HEK-293T cells
T1 sequence (B2RY04 1119-1667): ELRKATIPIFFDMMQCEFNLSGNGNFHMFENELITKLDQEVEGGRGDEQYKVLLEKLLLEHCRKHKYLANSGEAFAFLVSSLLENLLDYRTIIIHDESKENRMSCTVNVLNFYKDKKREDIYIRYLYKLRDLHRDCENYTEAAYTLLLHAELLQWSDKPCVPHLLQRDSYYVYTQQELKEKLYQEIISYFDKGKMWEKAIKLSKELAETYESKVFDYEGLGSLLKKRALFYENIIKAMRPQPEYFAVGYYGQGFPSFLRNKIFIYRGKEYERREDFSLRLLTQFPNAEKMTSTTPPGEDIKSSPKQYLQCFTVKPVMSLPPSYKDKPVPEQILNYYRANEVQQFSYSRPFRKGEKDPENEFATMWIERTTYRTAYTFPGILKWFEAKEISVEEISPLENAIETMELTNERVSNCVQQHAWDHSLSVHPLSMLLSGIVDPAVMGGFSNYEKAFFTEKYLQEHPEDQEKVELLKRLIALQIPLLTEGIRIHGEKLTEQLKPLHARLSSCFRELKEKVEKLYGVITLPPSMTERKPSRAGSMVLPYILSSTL
Source text: (§1) FIGS. 5A-5H: Inhibition of bone resorption by an inhibitor of Rac1 activation by Dock5. (FIG. 5A) Principle of the yeast exchange assay used to identify inhibitors of Dock5 exchange activity. Wild type Rac1 is fused to LexA DNA binding domain (LexA) and its effector Kinectin (Kin) to GAL4 activation domain (GAD). Expression of Dock5-DHR2 activates Rac1, which binds to kinectin, leading to the expression of his3 and then yeast […] for histidine. Inhibitors of Dock5-DHR2 revert Rac1 activation. (FIG. 5B) Growth curves of yeasts expressing Rac1 and Kinectin with (open triangles) and without (dots) Dock5-DHR2, in medium complemented (plain lines) or not (dotted lines) with histidine. (FIG. 5C) Structure of N-(3,5-dichlorophenyl)benzensulfonamide (C21). […] (FIG. 5F) Number of OCs (OC) after a 24-hour incubation with the indicated concentrations of C21, expressed as a % of DMSO control (0 μM C21). […] To activate Rac1, OCs at day 4 of differentiation were starved overnight in the presence of 2% serum, stimulated with 100 ng/ml M-CSF or lifted and replated onto vitronectin-coated plates for 30 minutes prior to lysis, and active Rac1 levels were measured G-LISA kit according to manufacturer's instructions (Cytoskeleton).

osteoclasts (OCs) = assay: Bone resorption assay, CTx concentration in medium of OCs on bovine bone slices; type: cell-based, mouse
Source text: as §1, with “(C21). (FIG. 5D) Western blots showing total and GTPbound Rac1 (upper panels) and GFP and GFP-fused Dock5-DHR2 in extracts of 293T cells treated for 1 hour with the indicated concentrations of C21 in the presence of 1% DMSO.” for “(C21).”, “Well image was reconstituted” for “To activate Rac1, OCs at day 4 of differentiation were starved overnight in the presence of 2% serum, stimulated with 100 ng/ml M-CSF or lifted”, “resorbed areas” for “replated onto vitronectin-coated plates for 30 minutes prior to lysis, and active Rac1 levels”, “using MetaMorph 7.0 software (Molecular Devices). […] After 2 days, CTx concentrations were measured using Crosslap (IDS Nordic Bioscience). […]” for “G-LISA kit according to manufacturer's instructions (Cytoskeleton).”

Compound: O=S(=O)(Nc1cc(Cl)cc(Cl)c1)c1ccccc1 [C21, N-(3,5-dichlorophenyl)benzenesulfonamide]
- Activation of Rac1 by Dock5-DHR2 (Dock5-DHR2): efficiently inhibits
- Bone resorption, CTx concentration in the culture medium of OCs (osteoclasts (OCs); 25 μM C21, OCs on bone): efficiently inhibits
- Bone resorption by OCs in vitro, CTx production per OC, dose response (osteoclasts (OCs); dose response experiment): efficiently inhibits bone resorption
